{
  "source": "patent US20070155771A1",
  "about": "“Methods and means for treating protein conformational disorders” (priority 2003, published 2007)",
  "test_system": "COS-7 cells expressing EGFP tagged wild-type HD exon 1 protein with 23 glutamine repeats, EGFP-polyalanine with 7 repeats or empty EGFP",
  "experiment": "Control constructs (Q23, A7, empty EGFP) in transiently transfected COS-7 cells",
  "type": "cell-based, African green monkey",
  "conditions": "10 mM 3-MA",
  "protocol": "African green monkey kidney cells (COS-7) were grown in Dulbecco's Modified Eagle Medium (DMEM, Sigma) supplemented with 10% Fetal Bovine Serum (FBS), 100 U/ml Penicillin/Streptomycin, 2 mM L-Glutamine and 1 mM Sodium Pyruvate at 37° C., 5% Carbon dioxide. The cells were grown on coverslips in six-well plates for immunofluorescence analysis, or were directly grown in six-well plates to 60-80% confluency for 24 hours for western blot analysis. Transfection was done using LipofectAMINE reagent (Invitrogen) using the manufacturer's protocol. The transfection mixture was replaced by normal culture medium after 5 hours incubation at 37° C. and the transfected cells were analysed by immunofluorescence or immunoblot 48 hours after transfection. […] Equal amounts of water or DMSO were added to the untreated controls, where relevant. The cells on coverslips were rinsed with 1×PBS, fixed with 4% paraformaldehyde in 1×PBS for 20 min and mounted in […] supplemented with 4',6-diamidino-2-phenylindole (DAPI, 3 μg/ml, Sigma) to allow visualisation of nuclear morphology. […] Aggregate formation and nuclear morphology were assessed using a fluorescence microscope. 200 EGFP positive COS-7 cells were selected and the proportion of cells with aggregates was counted. […]",
  "data": [
    {"smiles": "Cn1cnc(N)c2ncnc1-2", "note": "[3-MA, 3-methyl adenine]", "values": [
      {"measurement": "aggregate formation in cells expressing Q23 or A7", "result": "did not cause aggregate formation"},
      {"measurement": "levels of empty EGFP", "result": "did not cause any change"}
    ]}
  ]
}
